Measured values reported in patent US20250186410A1, “DUAL INHIBITORS OF TRYPTOPHAN DIOXYGENASES (IDO1 AND TDO) AND THEIR USE IN THERAPY” (ANTIDO THERAPEUTICS INTERNATIONAL SÀRL, priority 2022, published 2025).

How the values were obtained:
[1] = target: human TDO (GL261 cells transfected to over-express full length human TDO) (Homo sapiens (Human), UniProt P48775); experiment: Cell-based assay for TDO inhibition; conditions: 24 h; read-out: Cellular TDO IC50
Procedure: Culture supernatant from each well was then transferred into a fresh, flat-bottomed 96-well plate, and kynurenine content was determined as described above for the IDO1 assay, and the concentration that inhibited 50% cellular enzyme activity was calculated.

[2] = MTT cell viability in the cellular IDO1/TDO experiments; assay type: cell-based; conditions: mouse, read-out: Cytotoxicity IC50
Procedure: The viability of the cells in each well in the same experiment was determined using the 3-(4,5-dimethylthiazolyl-2-yl)-2,5-diphenyltetrazolium bromide (MTT) colourimetric assay. After the removal of the supernatant for determination of IDO1 inhibition, the cells were incubated with MTT (500 μg/mL) until crystal formation was observed. Plates were centrifuged for 15 min at 2500 g, and then all the supernatant in then wells was discarded. DMSO (100 μL/well) was added to dissolve the crystals and then the absorbance in each well was measured at 570 nm. Cell viability in each well was expressed as a percentage of untreated controls. Triplicate cultures were used for all experiments unless stated otherwise.
The viability of the cells in each well in the same experiment was determined using the 3-(4,5-dimethylthiazolyl-2-yl)-2,5-diphenyltetrazolium bromide (MTT) colourimetric assay.

[3] = target: human IDO1 (LLTC-hIDO1 cells) (Homo sapiens (Human), UniProt P14902); experiment: Cell-based assay for IDO1 inhibition; conditions: 24 h; read-out: Cellular IDO1 IC50
Procedure: Culture supernatant from each well was then transferred into a fresh, flat-bottomed 96-well plate, mixed with trichloroacetic acid (10% final concentration) and incubated for 20 min at 60° C. Plates were then centrifuged (10 min at 2500 g) and the supernatants were then transferred and mixed 1:1 with 4-(dimethylamino)benzaldehyde (20 mg/mL in acetic acid) in a new plate. The absorbance of each well was read at 480 nm, and the concentration that inhibited 50% cellular enzyme activity was calculated.

[4] = target: Recombinant human IDO1 (rhIDO1) (Homo sapiens (Human), UniProt P14902); experiment: Enzymatic assay for IDO1 activity; assay type: biochemical; conditions: read-out: Isolated IDO1 Enayme Assay IC50
Procedure: Recombinant human IDO1 (rhIDO1) was expressed and purified from cultures of EC538 strain of E. coli transformed with pREP4 and pQE9-IDO plasmid. Reaction mixes were set up in 384-well microplates containing 50 mM phosphate buffer, 10 mM ascorbic, 10 μM methylene blue, 100 μg/mL catalase, 80 μM TRP, 0.01% Tween 20 (v/v) mixed with rhIDO1 (15 μL) at a final concentration of 9 nM in a total volume of 30 μL assay medium. The plates were incubated at 37° C. for 30 min, and the enzymatic reaction was terminated by adding piperidine (200 mM) and heated at 65° C. for 20 min. Fluorescence intensity was read at λex 400 nm and λem 500 nm. Test compounds were dissolved in 100% DMSO and pre-diluted in assay medium prior to adding rhIDO1. IDO1 inhibition (%) was calculated as
All experiments were carried out in triplicates, and statistical Analyses were conducted in Prism v5 (Graphpad Software, Inc., La Jolla, CA, USA).

[5] = test system: LLC-CR cells; conditions: cited from earlier work

Chain of human IDO1 (LLTC-hIDO1 cells) (P14902 whole entry): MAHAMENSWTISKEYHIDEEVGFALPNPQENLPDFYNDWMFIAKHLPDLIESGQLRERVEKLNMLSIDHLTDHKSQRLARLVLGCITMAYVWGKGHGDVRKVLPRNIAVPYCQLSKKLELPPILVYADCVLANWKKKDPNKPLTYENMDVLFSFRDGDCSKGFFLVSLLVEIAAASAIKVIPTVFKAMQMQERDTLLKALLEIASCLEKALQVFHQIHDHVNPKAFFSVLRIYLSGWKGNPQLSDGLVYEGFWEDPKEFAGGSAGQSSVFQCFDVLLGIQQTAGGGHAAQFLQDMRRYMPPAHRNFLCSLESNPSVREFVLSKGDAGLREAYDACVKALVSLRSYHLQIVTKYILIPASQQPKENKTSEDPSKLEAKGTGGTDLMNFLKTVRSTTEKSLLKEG
Chain of Recombinant human IDO1 (rhIDO1) (P14902 whole entry): as above
Chain of human TDO (GL261 cells transfected to over-express full length human TDO) (P48775 whole entry): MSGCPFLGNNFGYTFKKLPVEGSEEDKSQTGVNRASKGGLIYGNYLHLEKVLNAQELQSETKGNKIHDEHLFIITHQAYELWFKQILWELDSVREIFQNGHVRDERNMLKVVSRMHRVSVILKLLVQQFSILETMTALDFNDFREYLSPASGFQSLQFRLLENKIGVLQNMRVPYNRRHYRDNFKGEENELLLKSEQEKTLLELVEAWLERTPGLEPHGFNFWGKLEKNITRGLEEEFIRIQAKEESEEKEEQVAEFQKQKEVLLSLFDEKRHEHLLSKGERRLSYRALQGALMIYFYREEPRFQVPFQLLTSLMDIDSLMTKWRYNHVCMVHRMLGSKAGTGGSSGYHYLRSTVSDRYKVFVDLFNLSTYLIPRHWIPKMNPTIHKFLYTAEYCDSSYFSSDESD

Structure (SMILES)	IC50 [1] [µM]	IC50 [3] [µM]	IC50 [4] [µM]	IC50 at 24 h [2] [µM]	GI50 concentration in resistant clones ([5]; LLC-CR cells) [µg/mL]	fold resistance of LLC-CR ([5]; LLC-CR versus parental LLC)
Cc1nc2onc(N)c2c(C)c1Br [Compound 1, 5-Bromo-4,6-dimethylisoxazolo[5,4-b]pyridin-3-amine]	10 to 100	–	–	> 100	–	–
Cc1nc2onc(N)c2c(C)c1Cl [Compound 3, 5-Chloro-4,6-dimethylisoxazolo[5,4-b]pyridin-3-amine]	10 to 100	–	–	10 to 100	–	–
Cc1cc(C)c2c(N)noc2n1 [Compound 4, 4,6-Dimethylisoxazolo[5,4-b]pyridin-3-amine]	10 to 100	–	–	> 100	–	–
Cc1nc2onc(N)c2c(C)c1C [Compound 5, 4,5,6-Trimethylisoxazolo[5,4-b]pyridin-3-amine]	10 to 100	1 to 10	–	> 100	–	–
Nc1noc2ncc(Br)cc12 [Compound 6, 5-Bromoisoxazolo[5,4-b]pyridin-3-amine]	< 1	–	–	> 100	–	–
Nc1noc2ncc(Cl)cc12 [Compound 8, 5-Chloroisoxazolo[5,4-b]pyridin-3-amine]	< 1	–	–	> 100	–	–
Nc1noc2nc3ccccc3cc12 [Compound 9, Isoxazolo[5,4-b]quinolin-3-amine]	1 to 10	–	–	10 to 100	–	–
Nc1noc2nc3c(cc12)CCCC3 [Compound 10, 5,6,7,8-Tetrahydroisoxazolo[5,4-b]quinolin-3-amine]	10 to 100	–	> 100	> 100	–	–
Nc1noc2nc(Cl)ccc12 [Compound 11, 6-Chloroisoxazolo[5,4-b]pyridin-3-amine]	–	–	–	> 100	–	–
Nc1noc2nc(Oc3ccc(OC(F)(F)F)cc3)ccc12 [Compound 89, 6-(4-(Trifluoromethoxy)phenoxy)isoxazolo[5,4-b]pyridin-3-amine]	–	–	–	> 100	–	–
N.N.O=C([O-])C1(C(=O)[O-])CCC1.[Pt+2] [carboplatin]	–	–	–	–	1.3	3-5 fold

More lines, main results first:

IC50 [1] [µM]	IC50 [3] [µM]	IC50 [4] [µM]	Structure (SMILES)	IC50 at 24 h [2] [µM]	GI50 concentration in resistant clones ([5]; LLC-CR cells) [µg/mL]	fold resistance of LLC-CR ([5]; LLC-CR versus parental LLC)
1 to 10	–	> 100	Nc1noc2ncncc12 [Compound 12, Isoxazolo[5,4-d]pyrimidin-3-amine]	> 100	–	–
1 to 10	1 to 10	> 100	Nc1noc2ncc(F)cc12 [Compound 14, 5-Fluoroisoxazolo[5,4-b]pyridin-3-amine]	> 100	–	–
10 to 100	–	> 100	Nc1noc2nc(-c3ccccc3)ccc12 [Compound 15, 6-Phenylisoxazolo[5,4-b]pyridin-3-amine]	> 100	–	–
–	1 to 10	> 100	Cc1nc2onc(NC(=O)Nc3cccc(C(F)(F)F)c3)c2c(C)c1Cl [Compound 15B, 1-(5-Chloro-4,6-dimethylisoxazolo[5,4-b]pyridin-3-yl)-3-(3-(trifluoromethyl)phenyl)urea]	> 100	–	–
< 1	–	–	Nc1noc2ncc(I)cc12 [Compound 16, 5-Iodoisoxazolo[5,4-b]pyridin-3-amine]	> 100	–	–
1 to 10	10 to 100	> 100	Nc1noc2ncc(-c3ccccc3)cc12 [Compound 24, 5-Phenylisoxazolo[5,4-b]pyridin-3-amine]	> 100	–	–
10 to 100	1 to 10	> 100	COc1ccc2c(N)noc2n1 [Compound 41, 6-Methoxyisoxazolo[5,4-b]pyridin-3-amine]	> 100	–	–
1 to 10	–	< 1	Cc1cc(Cl)nc2onc(N)c12 [Compound 42, 6-Chloro-4-methylisoxazolo[5,4-b]pyridin-3-amine]	> 100	–	–
< 1	–	> 100	Cc1cnc2onc(N)c2c1 [Compound 44, 5-Methylisoxazolo[5,4-b]pyridin-3-amine]	> 100	–	–
1 to 10	–	> 100	Cc1cc2c(N)noc2nc1C [Compound 45, 5,6-Dimethylisoxazolo[5,4-b]pyridin-3-amine]	> 100	–	–
1 to 10	–	< 1	Nc1noc2nc(C(F)(F)F)ccc12 [Compound 47, 6-(Trifluoromethyl)isoxazolo[5,4-b]pyridin-3-amine]	> 100	–	–
< 1	–	–	Nc1noc2ncc([N+](=O)[O-])cc12 [Compound 49, 5-Nitroisoxazolo[5,4-b]pyridin-3-amine]	> 100	–	–
< 1	–	–	Nc1noc2nc(Cl)c(Cl)cc12 [Compound 67, 5,6-Dichloroisoxazolo[5,4-b]pyridin-3-amine]	> 100	–	–
10 to 100	–	> 100	Nc1noc2nc(-c3cccs3)ccc12 [Compound 74, 6-(2-Thienyl)isoxazolo[5,4-b]pyridin-3-amine]	> 100	–	–
1 to 10	–	–	Nc1noc2nc(Oc3ccccc3Cl)ccc12 [Compound 84, 6-(2-Chlorophenoxy)isoxazolo[5,4-b]pyridin-3-amine]	> 100	–	–
10 to 100	10 to 100	> 100	COc1cccc(Nc2ccc3c(N)noc3n2)c1 [Compound 95, N^6-(3-Methoxyphenyl)isoxazolo[5,4-b]pyridine-3,6-diamine]	> 100	–	–
